One data set concerns the target T1, UGT 2B15 (Homo sapiens, UniProt P54855).
T1 sequence (P54855 24-530): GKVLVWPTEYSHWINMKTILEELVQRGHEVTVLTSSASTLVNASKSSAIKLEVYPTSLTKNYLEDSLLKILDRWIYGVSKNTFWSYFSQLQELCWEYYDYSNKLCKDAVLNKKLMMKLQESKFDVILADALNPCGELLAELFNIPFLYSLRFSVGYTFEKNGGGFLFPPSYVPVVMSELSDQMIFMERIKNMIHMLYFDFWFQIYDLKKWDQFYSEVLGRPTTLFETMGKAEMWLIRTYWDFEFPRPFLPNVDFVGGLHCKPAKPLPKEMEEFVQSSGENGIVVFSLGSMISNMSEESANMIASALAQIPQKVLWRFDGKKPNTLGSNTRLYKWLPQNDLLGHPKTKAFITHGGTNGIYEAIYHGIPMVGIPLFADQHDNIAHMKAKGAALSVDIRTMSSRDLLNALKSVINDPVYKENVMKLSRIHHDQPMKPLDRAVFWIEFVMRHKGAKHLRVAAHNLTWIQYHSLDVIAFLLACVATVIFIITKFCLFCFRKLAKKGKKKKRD
The data set is described as follows: Glucuronidation of opicapone by recombinant UGT2B15. In kind it is in vitro ADME. To be noted: 20 μM opicapone.

Data set [1] can be described thus: Glucuronidation of opicapone in human liver microsomes. To be noted: human liver microsomes (HLM), pH 7.5. The class given is in vitro ADME.
For data set [2] the following is noted: low solubility compound; ref unpublished information; cited from earlier work.
For another data set, the target named is T2, UGT1A6 (Homo sapiens, UniProt P19224).
T2 sequence (P19224 27-532): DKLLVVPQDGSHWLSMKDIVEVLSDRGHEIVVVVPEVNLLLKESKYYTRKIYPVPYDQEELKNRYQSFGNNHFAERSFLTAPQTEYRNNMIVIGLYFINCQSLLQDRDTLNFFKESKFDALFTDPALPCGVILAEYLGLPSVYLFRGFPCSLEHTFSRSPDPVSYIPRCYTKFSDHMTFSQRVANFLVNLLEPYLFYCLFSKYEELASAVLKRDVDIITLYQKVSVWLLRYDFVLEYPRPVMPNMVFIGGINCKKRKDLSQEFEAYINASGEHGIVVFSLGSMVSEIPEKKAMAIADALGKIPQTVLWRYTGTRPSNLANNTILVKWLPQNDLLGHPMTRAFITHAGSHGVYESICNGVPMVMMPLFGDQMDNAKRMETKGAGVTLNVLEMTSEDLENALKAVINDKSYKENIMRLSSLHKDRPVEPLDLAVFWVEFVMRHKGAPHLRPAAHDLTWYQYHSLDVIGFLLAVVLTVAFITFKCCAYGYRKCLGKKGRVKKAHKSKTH
The experiment in a line: Glucuronidation of opicapone by recombinant UGT1A6. In kind it is in vitro ADME.

The format of data set [3] is in vivo, rat. To be noted: rat, plasma, po, 1 g/kg.
The next data set concerns the target T3, UGT 1A3 (Homo sapiens, UniProt P35503).
T3 sequence (P35503 29-534): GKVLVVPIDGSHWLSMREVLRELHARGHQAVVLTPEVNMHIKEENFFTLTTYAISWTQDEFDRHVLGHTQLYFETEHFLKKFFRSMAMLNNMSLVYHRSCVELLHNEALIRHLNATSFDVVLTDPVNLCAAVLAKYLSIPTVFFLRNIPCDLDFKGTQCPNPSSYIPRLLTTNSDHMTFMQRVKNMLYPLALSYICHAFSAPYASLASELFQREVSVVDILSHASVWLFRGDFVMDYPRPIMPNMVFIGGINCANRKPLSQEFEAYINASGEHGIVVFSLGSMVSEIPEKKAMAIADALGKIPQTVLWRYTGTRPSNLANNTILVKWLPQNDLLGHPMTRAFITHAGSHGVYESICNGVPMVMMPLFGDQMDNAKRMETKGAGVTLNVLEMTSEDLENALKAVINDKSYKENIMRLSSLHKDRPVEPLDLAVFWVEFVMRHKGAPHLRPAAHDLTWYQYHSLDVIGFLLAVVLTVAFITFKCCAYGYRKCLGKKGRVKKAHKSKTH
The data set is described as follows: Glucuronidation of opicapone by recombinant UGT1A3. The class given is in vitro ADME. To be noted: 20 μM opicapone.

The conditions of data set [4]: healthy subjects; oral; cited from earlier work.
A further data set has as its target T4, UGT 2B4 (Homo sapiens, UniProt P06133).
T4 sequence (P06133 24-528): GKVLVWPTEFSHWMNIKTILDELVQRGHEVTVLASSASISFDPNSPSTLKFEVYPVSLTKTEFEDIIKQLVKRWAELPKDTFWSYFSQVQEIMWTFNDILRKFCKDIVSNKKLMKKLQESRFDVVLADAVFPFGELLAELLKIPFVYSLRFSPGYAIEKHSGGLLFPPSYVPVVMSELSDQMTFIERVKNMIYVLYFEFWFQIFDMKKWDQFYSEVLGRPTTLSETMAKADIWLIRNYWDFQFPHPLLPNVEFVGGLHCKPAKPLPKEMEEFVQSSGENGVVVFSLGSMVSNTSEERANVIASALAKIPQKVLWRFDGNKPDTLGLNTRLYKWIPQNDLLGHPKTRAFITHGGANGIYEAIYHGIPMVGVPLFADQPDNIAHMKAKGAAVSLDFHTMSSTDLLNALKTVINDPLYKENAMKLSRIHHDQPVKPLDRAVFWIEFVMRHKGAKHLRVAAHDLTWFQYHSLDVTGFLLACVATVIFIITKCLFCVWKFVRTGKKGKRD
The experiment in a line: Glucuronidation of opicapone by recombinant UGT2B4. In kind it is in vitro ADME. To be noted: 20 μM opicapone; incubation period of 60 min.

The next data set concerns the target T5, UGT 1A1 (Homo sapiens, UniProt P22309).
T5 sequence (P22309 26-533): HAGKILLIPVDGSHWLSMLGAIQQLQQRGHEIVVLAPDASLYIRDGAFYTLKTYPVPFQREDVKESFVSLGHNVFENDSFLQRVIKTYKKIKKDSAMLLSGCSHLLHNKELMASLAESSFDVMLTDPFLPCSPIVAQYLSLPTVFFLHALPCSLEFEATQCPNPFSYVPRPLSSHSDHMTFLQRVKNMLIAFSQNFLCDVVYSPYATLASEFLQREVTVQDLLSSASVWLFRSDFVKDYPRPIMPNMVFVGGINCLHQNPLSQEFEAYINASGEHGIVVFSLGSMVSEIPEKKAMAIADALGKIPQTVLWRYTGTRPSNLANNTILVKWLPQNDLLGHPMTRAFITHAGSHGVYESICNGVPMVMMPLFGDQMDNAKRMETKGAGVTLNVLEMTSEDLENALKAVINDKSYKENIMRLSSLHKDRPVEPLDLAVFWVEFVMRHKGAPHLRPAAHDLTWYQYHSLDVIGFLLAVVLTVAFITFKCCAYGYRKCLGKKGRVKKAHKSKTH
The experiment in a line: Glucuronidation of opicapone by recombinant UGT1A1. In kind it is in vitro ADME. To be noted: 20 μM opicapone.

Each structure is given as a SMILES string.

One may read the Km as the substrate concentration at which the rate is half of its maximum. A word on the Cmax: it is the maximum level reached in the sampled fluid or tissue. Turning to `Cc1c(Cl)c(C)[n+]([O-])c(Cl)c1-c1noc(-c2cc(O)c(O)c([N+](=O)[O-])c2)n1` [opicapone, 2,5‐dichloro‐3‐(5‐(3,4‐dihydroxy‐5‐nitrophenyl)‐1,2,4‐oxadiazol‐3‐yl)‐4,6‐dimethylpyridine 1‐oxide], the “Formation of BIA 9-1106 (screening)” value at UGT 2B15, on UGT1A6 (20 μM opicapone), on UGT 1A3 and on UGT 1A1 was “little amounts” each time. For the same compound, the Km in [1] was found to be 27.9 ± 6.4 µM. In addition, the “Biopharmaceutics Classification System class” value in data set [2] is on record as “class II”. Besides, the “Glucuronidation kinetics (form of the rate curve)” value on UGT1A6 (opicapone 1 to 250 μM) was “linear”. This compound also showed a Cmax in data set [3] of 7090 ng/mL. The “Apparent terminal elimination half-life (t1/2)” value in data set [4] is 48 to 192 min. Also, the “Metabolite formation (screening)” value on UGT 2B4 is listed as “No metabolite formation was detected”.

The record behind these values is article PMC8929358 (Pharmacology Research & Perspectives, 2021).
